“Also recorded” adds a separate entry of the source. Like-named read-outs stand apart in the source and are kept apart here.
How the values were obtained:
military patients = details: McGhee et al., cited from earlier work
C57BL/6NTac mice = assay: Sucrose splash test (ST) in CORT model; assay type: in vivo; details: ketamine 90 mg kg^−1 or fluoxetine, before CORT
Procedure: Experiment 5 (Pre-ketamine and pre-fluoxetine corticosterone (CORT)): C57BL16NTac mice were injected with ketamine (10, 30, 90 mg kg^−1, i.p.) 1 week before the start of CORT, or administered fluoxetine (18 mg kg^−1 per day) in the drinking water for 3 weeks before the start of CORT. Ketamine was purchased from Merial (100 mg/ml stock solution). Fluoxetine hydrochloride (160 μg/mL, equivalent to 18 mg kg^−1 per day in the drinking water) was purchased from Anawa Trading (Zurich, Switzerland) and dissolved in 0.45% hydroxypropyl-β-cyclodextrin (β-CD) (Sigma-Aldrich, Saint-Quentin Fallavier, France) solution. Following ketamine or fluoxetine treatment, CORT was administered for 3 weeks in the drinking water. CORT (4-pregnen-11b-DIOL-3 20-DIONE 21-hemisuccinate) (35 μg/ml) from. Sigma Aldrich (Saint-Quentin Fallavier, France) was dissolved in vehicle (0.45% β-CD). Control animals received vehicle (0.45% β-CD) throughout the duration of the experiment.
This test consisted of squirting 200 μl of a 10% sucrose solution on the mouse's snout. The grooming duration was quantified using Stopwatch+ (Center for Behavioral Neuroscience, Georgia State University).

129S6/SvEvTac mice [1] = assay: Novelty suppressed feeding (NSF) in SD experiments; assay type: in vivo
Procedure: (§1) Testing was performed as previously described (A13). Briefly, the testing apparatus consisted of a plastic box (50×50×20 cm). The floor was covered with approximately 2 cm of wooden bedding and the arena was brightly lit (1100-1200 lux). For 129S6/SvEv experiments, mice were food restricted for 12 h. For the C57BL/6N experiments, mice were food restricted for 24 h. All food was removed from the home cage. At the time of testing, a single pellet of food (regular chow) was placed on a white paper platform positioned in the center of the box. Each animal was placed in a corner of the box, and a stopwatch was immediately started. The latency of the mice to begin eating was recorded. Immediately after the latency was recorded, the food pellet was removed from the arena. The mice were then placed into a cage and the amount of food consumed in 5 min was measured (home cage consumption), followed by an assessment of post-restriction weight. We used the Kaplan-Meier survival analysis due to the lack of normal distribution of data. The Mantel-Cox log-rank test was used to evaluate differences between the experimental groups.

[2] = Body weight loss before NSF in SD experiments; assay type: in vivo; details: SD mice; ketamine after SD; vs saline
Procedure: as §1

129S6/SvEv mice = assay: FST after prophylactic ketamine or ketamine metabolites (FIG. 15); assay type: in vivo; details: prophylactic K-injected vs Sal-injected mice
[3] = system: hypothalamic-pituitary-adrenal (HPA) axis; assay: Corticosterone enzyme immunoassay after a brief stressor (SD model); assay type: in vivo; details: SD mice; ketamine 10, 30 or 90 mg kg^−1 before SD; vs Ctrl-Sal
Procedure: Mice were exposed to a minor stressor for 10 min and then returned to their home cages. Blood was collected from awake mice 70 min after the start of the stressor from the retro-orbital sinus using hematocrit tubes. Blood was then transferred to Eppendorf tubes pre-coated with 5 μl 0.5 M EDTA, placed on ice, and immediately spun down to obtain plasma for subsequent EIA. Plasma was stored at −80° C. until analysis. EIA was performed using a DetectX Corticosterone EIA Kit (#K014-H1, Arbor Assays).

129S6/SvEvTac mice [4] = assay: Fighting behavior during SD bouts; assay type: in vivo; details: for latency of the CD-1 to attack the 129S6/SvEv mouse: vs SD-Sal
Procedure: Adult aggressor CD-1 male mice were single-housed in Macrolon® polycarbonate resin cages (15.25 in×7.8 in×9.5 in) (Animal Care Systems, Inc., Centennial, Colo.). Male 129S6/SvEvTac mice (9 weeks of age) were subsequently placed into the resident. CD-1 mouse's cage. Three antagonistic encounters were allowed between the CD-1 mouse and the intruder. Each of these encounters typically lasted less than 5 min. Following the encounters, mice were separated by a polished stainless steel cage divider (Animal Care Systems, Inc., Centennial, Colo., P/N C79171), which allowed for olfactory and auditory communication, but limited visual or tactile contact. The partition was removed daily for 2 weeks and 3 antagonistic encounters were allowed between the mice each day. This procedure consistently yielded a submissive phenotype in the experimental intruder mice. Control (Ctrl) mice were group housed 4 to 5 per cage in Macrolon® polycarbonate resin cages without dividers.

129S6/SvEvTac mice [5] = assay: 3-shock CFC, extinction and reinstatement paradigm; assay type: in vivo
Procedure: A single injection of saline (0.9% NaCl) far ketamine (30 mg kg^−1) (Ketaset III, Ketamine HCl injection, Fort Dodge Animal Health, Forth Dodge, Iowa) was administered once during the course of each experiment.
A 3-shock CFC paradigm was administered as previously described (Drew et al., 2010; Denny et al., 2014). Mice were placed in the conditioning chamber and received 3 shocks 180, 240, and 300 s later (2 s, 0.75 mA) and were removed 15 s following the last shock. All sessions were scored for freezing using FreezeView2http://actimetrics.com/downloads/freezeframe/).
Extinction began 4 days after the initial 3-shock CFC procedure, or 4 days after the reinstatement procedure. Each group of mice was subjected to 2 extinction trials per day. Each extinction trial lasted 30 min, with an intertrial interval of at least 2 h. For each extinction trial, mice were placed in the same box used for CFC without receiving foot shocks. All trials were scored for freezing. The freezing presented throughout the text represents averaged freezing behavior for the first 3 min of each extinction trial.
Reinstatement took place in the same Coulbourn fear conditioning box, but with altered cues. A 1-shock CFC paradigm was administered as previously described (Drew et al., 2010; Denny et al., 2012; Denny et al., 2014), with the exception of two experiments in which the mice were administered 3 shocks.

C57BL/6J strain = details: cited from earlier work
[6] = ketamine 1 week before CFC, vs saline
[7] = 20 mg kg^−1 following the final SD session

Compound: CNC1(c2ccccc2Cl)CCCCC1=O (racemic) [ketamine, (RS)-2-(2-chlorophenyl)-2-(methylamino)cyclohexanone]
- prevalence of PTSD (military patients; ketamine during an operation for burns vs no ketamine, 2008): decreased
- incidence rate of PTSD (military patients; with and without intraoperative ketamine, 2014): comparable incidence rate of PTSD
- latency to groom in the ST (chronic CORT-induced depressive-like phenotype) (C57BL/6NTac mice): prevented the chronic CORT-induced depressive-like phenotype; also recorded: decreased the latency to groom
- latency to eat in NSF (129S6/SvEvTac mice [1]; Ctrl mice, ketamine in post-SD design, vs saline): decreased the latency to eat; also recorded: significantly decreased the latency to approach the food pellet
- latency to eat in NSF (129S6/SvEvTac mice [1]; SD mice, ketamine after SD, vs SD-Sal): abolished; also recorded: did not differ from one another
- latency to feed in NSF (129S6/SvEvTac mice [1]; ketamine 30 mg kg^−1 before SD): no significant effect
- percentage of weight loss [2]: lessened the percentage of weight loss; also recorded: attenuated this weight loss
- immobility in day 2 of the FST (129S6/SvEv mice): significantly less immobility
- levels of CORT following a brief stressor [3]: did not differ from Ctrl-Sal mice
- average immobility during week 2 of SD bouts (129S6/SvEvTac mice [4]; SD-K vs SD-Sal): significantly decreased; also recorded: significantly altered
- average immobility time during week 1 of SD bouts (129S6/SvEvTac mice [4]; all groups): not significantly different
- latency of the CD-1 to attack the 129S6/SvEv mouse (129S6/SvEvTac mice [4]; ketamine 30 mg kg^−1, at the start of SD): significantly later; also recorded: only differed
- latency of the CD-1 to attack the 129S6/SvEv mouse (129S6/SvEvTac mice [4]; ketamine 10 or 90 mg kg^−1): comparably attacked
- freezing during 3-shock CFC training (129S6/SvEvTac mice [5]; ketamine 30 mg kg^−1 1 week before CFC, vs saline): comparable levels of freezing
- fear response (freezing) during CFC training (129S6/SvEvTac mice [5]; ketamine 1 month before CFC): did not result in a decreased fear response
- freezing behavior during extinction (129S6/SvEvTac mice [5]; ketamine 1 month before CFC): did not alter freezing behavior during extinction
- fear, first trial of extinction vs first trial of re-extinction (E1 vs. E9) (129S6/SvEvTac mice [5]; [6]): significantly decreased levels of fear
- freezing during the first extinction exposure (129S6/SvEvTac mice [5]; [6]): significantly less freezing behavior
- fear expression during extinction training (129S6/SvEvTac mice [5]; ketamine 1 week following CFC, 1 week prior to extinction): did not alter fear expression during extinction training; also recorded: equal levels of freezing behavior during all extinction trials
- subsequent fear expression (reinstatement, secondary extinction) (129S6/SvEvTac mice [5]; ketamine 1 week prior to 1-shock reinstatement (24 h after the last extinction trial)): did not alter subsequent fear expression; also recorded: equal levels of freezing behavior during reinstatement and during secondary extinction trials
- fear expression (reinstatement, secondary extinction) (129S6/SvEvTac mice [5]; ketamine 1 week prior to 3-shock reinstatement): did not alter fear expression; also recorded: comparable levels of fear behavior
- fear expression during the first re-exposure (129S6/SvEvTac mice [5]; ketamine 1 h after 3-shock reinstatement): buffered fear expression during the first re-exposure
- freezing throughout secondary extinction (129S6/SvEvTac mice [5]; ketamine 1 h after 3-shock reinstatement, vs saline): transiently decreased freezing throughout extinction; also recorded: decreased fear
- freezing during extinction (129S6/SvEvTac mice [5]; ketamine 1 h before CFC): froze comparably during extinction; also recorded: equal levels of freezing behavior during almost all extinction trials
- subsequent fear expression (secondary extinction trials) (129S6/SvEvTac mice [5]; ketamine 1 h following 1-shock reinstatement): did not alter subsequent fear expression; also recorded: comparable levels of fear behavior during secondary extinction trials
- fear expression during extinction (129S6/SvEvTac mice [5]; ketamine 1 h following 3-shock CFC training): did not alter fear expression during extinction; also recorded: equal levels of freezing behavior during all extinction trials
- fear expression during extinction training (129S6/SvEvTac mice [5]; ketamine 1 h prior to extinction): did not alter fear expression during extinction training; also recorded: equal levels of freezing behavior during all extinction trials
- freezing behavior during extinction (129S6/SvEvTac mice [5]; ketamine 24 h before CFC): did not alter
- subsequent fear expression (secondary extinction trials) (129S6/SvEvTac mice [5]; ketamine 24 h following 3-shock reinstatement): did not alter subsequent fear expression; also recorded: comparable levels of freezing behavior
- social avoidance (C57BL/6J strain; 20 mg kg^−1 administered before SD): did not attenuate social avoidance
- anhedonia (C57BL/6J strain; [7]): not anhedonia
- social avoidance (C57BL/6J strain; [7]): attenuated social avoidance

Source: patent publication US11110070B2 (priority 2015, dated 2021)
